Assay results published in patent US11767298B2, “Substituted benzimidazoles as inhibitors of transforming growth factor-β kinase” (Duke University, priority 2016, dated 2023).
“Also recorded” adds a separate entry of the source.

Experiments:
P. berghei EEFs = experiment: Immunofluorescence analysis of P. berghei EEFs in Huh7 cells; format: cell-based
Description: Immunofluorescence analysis of EEFs. For immunofluorescence analysis of EEFs, Huh7 cells were fixed with 4% paraformaldehyde for 10 min at room temperature (RT), washed thrice with PBS, permeabilized with cooled methanol for 10 min at −20° C. and blocked with 3% BSA in PBS for 30 min at RT. Thereafter, cells were incubated with a primary antibody, mouse anti-PbHSP70 (clone 2E6 1:1000) diluted in blocking buffer overnight at 4° C. Following incubation, samples were washed with PBS and incubated for 1 hr at RT with a secondary antibody, goat anti-mouse AlexaFluor 488 (1:400, Life Technologies). Finally, nuclei were stained with DAPI for 15 min at RT. For evaluation of fluorescence intensity from EEFs after infection with GFP-expressing P. berghei sporozoites, DAPI nucleus staining was performed following cell fixation. After five washes with PBS, ˜40 μl PBS was left in wells and images were acquired on a Zeiss Axio Observer widefield fluorescence microscope.
To further investigate the effect of compound 1 during malaria's liver stage, immunofluorescence assays were performed. Infected Huh7 cells were treated with 10 μM or 30 μM compound 1 for various period of time ranging from 0-24 h post-infection (hpi), 24-48 hpi and 0-48 hpi, and subsequently labeled with P. berghei HSP70 antibodies at 48 hpi. […] EEF size as compared to DMSO treated cells at all time periods tested (One-way ANOVA P<0.0001). The number of P.b. EEFs was not affected by 10 μM compound 1 as compared to DMSO treatment (FIG. 4B; One-way ANOVA P=0.0804). Similarly, treatment of infected cells with 30 μM compound 1 led to increased P.b. EEF size when added either for 0-24 hpi or 24-48 hpi. (FIGS. 4C and 4E; One-way ANOVA P<0.0001). […] Moreover, total fluorescence signal from GFP-expressing P.b. EEFs decreased with compound 1 when added for a period of 48 h post-infection. […] EEF size was increased by 10 μM compound 1 as compared to DMSO treated cells.

MDA-MB-231 = experiment: Viability and proliferation assays on breast cancer cell lines; format: cell-based; conditions: 48 h and 72 h
CLK2 = CLK2 (Homo sapiens, UniProt P49760); experiment: Kinase profiling (Dundee), CLK2; format: biochemical; conditions: 10 μM
Description: Kinase selectivity profiling. The selectivity profile of HS-206 to inhibit mammalian kinases was tested against a panel of 140 kinases at a single concentration of 10 μM. Tests were performed using a radiolabeld (^33P-ATP) filter-binding assay at the International Centre for Kinase Profiling at the University of Dundee, UK (http://www.kinase-screen.mrc.ac.uk/).
This panel contains members of all major kinase families, including tyrosine kinases (TK), tyrosine kinase-like (TKL), sterile serine/threonine (STE), and CDK/MAPK/GSK/CLK (CMGC). […] For these kinases, IC50 values were determined (Table 1).

CLK2, sequence (P49760 whole entry): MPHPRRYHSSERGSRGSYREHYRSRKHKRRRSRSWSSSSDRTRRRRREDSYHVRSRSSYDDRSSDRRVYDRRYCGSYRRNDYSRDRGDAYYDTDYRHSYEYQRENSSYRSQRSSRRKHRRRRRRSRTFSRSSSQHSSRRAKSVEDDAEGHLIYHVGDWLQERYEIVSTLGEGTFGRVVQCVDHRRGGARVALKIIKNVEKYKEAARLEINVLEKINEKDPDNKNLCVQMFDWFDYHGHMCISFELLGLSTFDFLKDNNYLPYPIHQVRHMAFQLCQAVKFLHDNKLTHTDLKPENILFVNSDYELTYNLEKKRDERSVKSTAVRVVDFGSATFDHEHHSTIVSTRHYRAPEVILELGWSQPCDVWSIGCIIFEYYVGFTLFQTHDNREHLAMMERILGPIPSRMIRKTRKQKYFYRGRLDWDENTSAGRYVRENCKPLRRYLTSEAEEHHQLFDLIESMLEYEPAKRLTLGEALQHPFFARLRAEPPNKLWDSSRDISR

In the case of `CCCn1c(NC(=O)c2cccc(C(N)=O)c2)nc2ccccc21` [HS-206 (1), (E)-N-(1-Propyl-1,3-dihydro-2H-benzo[d]imidazol-2-ylidene)isophthalamide], the “P.b. EEF size” value (P. berghei EEFs; 10 μM, 0-24, 24-48 and 0-48 hpi, Huh7) is reported as “significantly increased”, the “number of P.b. EEFs” value (P. berghei EEFs; 10 μM, Huh7) is reported as “not affected” and the “number of P.b. EEFs” value (P. berghei EEFs; 30 μM, added 0-24 hpi or 0-48 hpi) is reported as “decreased”. For the same compound, the “P.b. EEF size” value (P. berghei EEFs; 30 μM, added 0-24 hpi or 24-48 hpi, Huh7) was “increased”, the “number of P.b. EEFs” value (P. berghei EEFs; 30 μM, treatment from 24-48 hpi) was “did not significantly decreased” and the “total fluorescence signal from GFP-expressing P.b. EEFs” value (P. berghei EEFs; 10 and 30 μM, 48 h post-infection) was “decreased”. The cell proliferation (MDA-MB-231) was “significant reduction in cell proliferation; also recorded: inhibits cell proliferation in a dose-dependent manner” and the inhibition at 10 µM (CLK2) was over 90%.
